Assay results from patent publication US20230295110A1, “PHD INHIBITOR COMPOUNDS, COMPOSITIONS, AND METHODS OF USE” (Akebia Therapeutics, Inc., priority 2020, published 2023).

What was measured:
full-length human PHD1 = full-length human PHD1 (Homo sapiens (Human), UniProt Q96KS0); test: TR-FRET assay for PHD enzymes, PHD1; type: biochemical; settings: TR-FRET, 15 nM PHD1, 1 μM 2-OG
Description: PHD1 was expressed in a baculovirus expression system as the full-length protein (NCBI accession number NP_542770.2) with an N-terminal FLAG tag (molecular weight 44.9 kDa).

full-length human PHD2 = full-length human PHD2 (Homo sapiens (Human), UniProt Q9GZT9); test: TR-FRET assay for PHD enzymes, PHD2; settings: read-out: PHD2 IC50; TR-FRET, 5 nM PHD2, 1 μM 2-OG
Description: Time-resolved fluorescence resonance energy transfer (TR-FRET) assay was utilized to determine the enzymatic half maximal inhibitory concentration (IC50) value of PHD inhibitors against the full-length human prolyl-4-hydroxylase domain (PHD) enzymes, PHD1, PHD2, and PHD3. The TR-FRET assay was developed based on the specific binding of hydroxylated HIF-1α peptide with the complex formed by VHL, EloB and EloC (VBC), to generate a fluorescent signal. Terbium (Tb)-Donor (monoclonal antibody anti-6His-Tb-cryptate Gold) and D2-acceptor (streptavidin [SA]-D2) of TR-FRET are linked to the VBC complex and to HIF-1α peptide, respectively. The VBC complex binds specifically to the HIF-1α peptide when it is hydroxylated, allowing energy transfer from TR-FRET donor to acceptor (FIG. 1). […] The plates were incubated for 30 minutes at room temperature without rotation. […] TR-FRET assays were performed in triplicate at each concentration of compound and the assays were repeated independently three times.

full-length human PHD3 = full-length human PHD3 (Homo sapiens (Human), UniProt Q9H6Z9); test: TR-FRET assay for PHD enzymes, PHD3; type: biochemical; settings: TR-FRET, 35 nM PHD3, 1 μM 2-OG
Description: Recombinant human PHD3 protein (molecular weight 31.1 kDa) was purchased from Active Motif (Carlsbad, CA, USA). It was expressed in E. coli as the full-length protein (NCBI accession number NP_071356.1) with an N-terminal 6-His tag (catalog #81033, Lot #24417001).

Measured: IC50

full-length human PHD2, sequence (Q9GZT9 whole entry): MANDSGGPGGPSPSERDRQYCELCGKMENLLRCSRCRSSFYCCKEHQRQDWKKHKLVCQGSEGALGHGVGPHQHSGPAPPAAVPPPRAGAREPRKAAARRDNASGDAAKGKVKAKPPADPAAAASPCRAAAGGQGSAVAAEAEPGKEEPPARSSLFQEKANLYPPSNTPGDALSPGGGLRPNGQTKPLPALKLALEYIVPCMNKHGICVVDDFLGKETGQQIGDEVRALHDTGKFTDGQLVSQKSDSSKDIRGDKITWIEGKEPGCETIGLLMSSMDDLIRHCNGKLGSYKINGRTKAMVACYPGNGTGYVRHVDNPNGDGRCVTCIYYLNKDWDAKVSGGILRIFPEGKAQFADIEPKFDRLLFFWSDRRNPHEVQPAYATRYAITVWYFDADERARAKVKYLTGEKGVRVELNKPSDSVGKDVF
full-length human PHD1, sequence (Q96KS0 whole entry): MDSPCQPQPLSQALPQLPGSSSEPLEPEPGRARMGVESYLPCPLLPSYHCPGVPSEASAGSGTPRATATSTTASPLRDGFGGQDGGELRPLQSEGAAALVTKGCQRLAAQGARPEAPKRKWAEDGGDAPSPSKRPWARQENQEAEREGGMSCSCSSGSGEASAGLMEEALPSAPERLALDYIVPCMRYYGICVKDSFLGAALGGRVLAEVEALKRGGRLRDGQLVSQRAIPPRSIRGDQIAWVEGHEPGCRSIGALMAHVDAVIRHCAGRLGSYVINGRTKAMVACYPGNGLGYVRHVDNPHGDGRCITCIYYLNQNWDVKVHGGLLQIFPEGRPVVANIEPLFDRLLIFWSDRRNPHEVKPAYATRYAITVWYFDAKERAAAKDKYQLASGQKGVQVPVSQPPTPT
full-length human PHD3, sequence (Q9H6Z9 whole entry): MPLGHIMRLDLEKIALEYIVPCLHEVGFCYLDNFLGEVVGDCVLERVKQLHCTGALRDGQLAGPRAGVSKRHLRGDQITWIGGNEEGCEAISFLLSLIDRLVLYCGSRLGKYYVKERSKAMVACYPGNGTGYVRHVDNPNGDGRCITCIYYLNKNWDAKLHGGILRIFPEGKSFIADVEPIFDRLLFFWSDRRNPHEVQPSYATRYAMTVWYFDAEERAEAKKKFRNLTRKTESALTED

Cc1c(-c2cccc(Cl)c2)cnc(C(=O)NCC(=O)O)c1O [Compound 32, (5-(3-chlorophenyl)-3-hydroxy-4-methylpicolinoyl)glycine]
< 100 nM: all assays above

Cc1c(-c2ccc3ccccc3c2)cnc(C(=O)NCC(=O)O)c1O [Compound 33, (3-hydroxy-4-methyl-5-(naphthalen-2-yl)picolinoyl)glycine]
< 100 nM: all assays above

Cc1c(-c2cc(Cl)cc(Cl)c2)cnc(C(=O)NCC(=O)O)c1O [Compound 36, (5-(3,5-dichlorophenyl)-3-hydroxy-4-methylpicolinoyl)glycine]
< 100 nM: all assays above

Cc1nc(-c2ccccc2)sc1-c1cnc(C(=O)NCC(=O)O)c(O)c1C [Compound 37, (3-hydroxy-4-methyl-5-(4-methyl-2-phenylthiazol-5-yl)picolinoyl)glycine]
< 100 nM: all assays above

Cc1nn(-c2ccc(F)cc2)cc1-c1cnc(C(=O)NCC(=O)O)c(O)c1C [Compound 38, (5-(1-(4-fluorophenyl)-3-methyl-1H-pyrazol-4-yl)-3-hydroxy-4-methylpicolinoyl)glycine]
< 100 nM: all assays above

Cc1nn(-c2cccc(F)c2)cc1-c1cnc(C(=O)NCC(=O)O)c(O)c1C [Compound 39, (5-(1-(3-fluorophenyl)-3-methyl-1H-pyrazol-4-yl)-3-hydroxy-4-methylpicolinoyl)glycine]
< 100 nM: all assays above

Cc1c(-c2cn(-c3ccc(F)cc3)nn2)cnc(C(=O)NCC(=O)O)c1O [Compound 41, (5-(1-(4-fluorophenyl)-1H-1,2,3-triazol-4-yl)-3-hydroxy-4-methylpicolinoyl)glycine]
< 100 nM: all assays above

Cc1c(-c2cn(CCc3ccc(Cl)cc3)nn2)cnc(C(=O)NCC(=O)O)c1O [Compound 42, (5-(1-(4-chlorophenethyl)-1H-1,2,3-triazol-4-yl)-3-hydroxy-4-methylpicolinoyl)glycine]
< 100 nM: all assays above

Cc1c(-c2cn(CCCc3ccc(Cl)cc3)nn2)cnc(C(=O)NCC(=O)O)c1O [Compound 43, (5-(1-(3-(4-chlorophenyl)propyl)-1H-1,2,3-triazol-4-yl)-3-hydroxy-4-methylpicolinoyl)glycine]
< 100 nM: all assays above

Cc1c(-c2cn(-c3ccccc3)nn2)cnc(C(=O)NCC(=O)O)c1O [Compound 44, (3-hydroxy-4-methyl-5-(1-phenyl-1H-1,2,3-triazol-4-yl)picolinoyl)glycine]
< 100 nM: all assays above
